# Results published in ChEMBL document CHEMBL1128255, “Synthesis of 11 beta-[18F]fluoro-5 alpha-dihydrotestosterone and 11 beta-[18F]fluoro-19-nor-5 alpha-dihydrotestosterone: preparation via halofluorination-reduction, receptor binding, and tissue distribution” (J Med Chem, 1995).
# Experiments:
# [1] = physchem; settings: octanol/water
# Description: Partition coefficient (logP)
# [2] = biological target: T1, Androgen receptor (Rattus norvegicus) (UniProt P15207)
# T1 sequence (whole entry): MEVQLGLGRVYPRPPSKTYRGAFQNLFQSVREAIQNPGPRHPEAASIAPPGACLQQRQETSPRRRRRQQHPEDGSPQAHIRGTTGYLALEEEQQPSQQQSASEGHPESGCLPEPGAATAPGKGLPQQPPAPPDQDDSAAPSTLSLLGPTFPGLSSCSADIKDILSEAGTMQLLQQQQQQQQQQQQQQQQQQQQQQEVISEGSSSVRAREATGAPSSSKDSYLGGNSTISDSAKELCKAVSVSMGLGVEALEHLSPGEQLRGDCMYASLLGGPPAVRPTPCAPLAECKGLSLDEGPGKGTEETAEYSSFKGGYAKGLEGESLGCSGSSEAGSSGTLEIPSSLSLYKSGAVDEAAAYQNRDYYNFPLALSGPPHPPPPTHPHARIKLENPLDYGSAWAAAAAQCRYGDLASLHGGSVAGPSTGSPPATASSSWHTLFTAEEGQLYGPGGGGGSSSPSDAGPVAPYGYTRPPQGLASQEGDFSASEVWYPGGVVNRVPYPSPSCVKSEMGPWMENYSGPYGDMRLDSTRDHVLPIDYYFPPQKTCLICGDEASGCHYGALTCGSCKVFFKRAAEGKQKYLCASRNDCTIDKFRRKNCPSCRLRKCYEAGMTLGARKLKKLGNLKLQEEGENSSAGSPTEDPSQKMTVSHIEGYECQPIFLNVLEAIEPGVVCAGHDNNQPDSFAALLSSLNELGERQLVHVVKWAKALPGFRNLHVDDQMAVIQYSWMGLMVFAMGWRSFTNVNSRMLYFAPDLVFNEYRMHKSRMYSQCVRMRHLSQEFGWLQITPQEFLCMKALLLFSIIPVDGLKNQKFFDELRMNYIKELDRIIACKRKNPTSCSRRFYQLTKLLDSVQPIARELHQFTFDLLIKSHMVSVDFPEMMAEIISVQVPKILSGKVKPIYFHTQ
# Description: Binding selectivity index (BSI) as ratio of RBA for androgen receptor to non-specific binding of R1881
Structure (SMILES),logP [1],BSI [2]
C[C@]1(O)CC[C@H]2[C@@H]3CCC4=CC(=O)CCC4=C3C=C[C@@]21C [METRIBOLONE],3.29,100
C[C@]12CC[C@H]3[C@@H](CC[C@H]4CC(=O)CC[C@@H]43)[C@@H]1CC[C@@H]2O,3.85,13.7
C[C@]12CC[C@H]3[C@@H](CCC4=CC(=O)CC[C@@H]43)[C@@H]1CC[C@@H]2O [NANDROLONE],3.17,
C[C@]12CC[C@H]3[C@@H](CCC4=CC(=O)CC[C@@]43C)[C@@H]1CC[C@@H]2O [TESTOSTERONE],3.45,
